Reference: ChEMBL document CHEMBL5303573, “Mapping human microbiome drug metabolism by gut bacteria and their genes” (Nature, 2019)

Columns and labels:
[1] = bacteroides fragilis, 12 h, 2 µM
Description: The drug is tested on Bacteroides fragilis strain: 3397 (T10) for biotransformation. The drug concentrations were measured before and after a 12-h incubation by liquid-chromatography-coupled mass spectrometry (LC–MS)

[2] = The drug is tested on Escherichia coli strain: BW25113 for biotransformation. The drug concentrations were measured before and after a 12-h incubation by liquid-chromatography-coupled mass spectrometry (LC–MS); settings: 2 µM
[3] = The drug is tested on Bacteroides coprophilus strain: DSM18228 for biotransformation. The drug concentrations were measured before and after a 12-h incubation by liquid-chromatography-coupled mass spectrometry (LC–MS); settings: 2 µM
[4] = The drug is tested on Enterococcus faecalis strain: V583 for biotransformation. The drug concentrations were measured before and after a 12-h incubation by liquid-chromatography-coupled mass spectrometry (LC–MS); settings: 2 µM
[5] = roseburia intestinalis, 12 h, 2 µM
Description: The drug is tested on Roseburia intestinalis strain: L1-82 for biotransformation. The drug concentrations were measured before and after a 12-h incubation by liquid-chromatography-coupled mass spectrometry (LC–MS)

[6] = The drug is tested on Eubacterium ventriosum strain: ATCC27560 for biotransformation. The drug concentrations were measured before and after a 12-h incubation by liquid-chromatography-coupled mass spectrometry (LC–MS); type: ADME; set-up: dose 2 uM, timepoint 0 vs 12 hours; settings: 2 µM
[7] = The drug is tested on Bacteroides ovatus strain: ATCC8483 for biotransformation. The drug concentrations were measured before and after a 12-h incubation by liquid-chromatography-coupled mass spectrometry (LC–MS); settings: 2 µM
[8] = The drug is tested on Subdoligranulum variabile strain: DSM15176 for biotransformation. The drug concentrations were measured before and after a 12-h incubation by liquid-chromatography-coupled mass spectrometry (LC–MS); settings: 2 µM
[9] = The drug is tested on Clostridium sporogenes strain: ATCC15579 for biotransformation. The drug concentrations were measured before and after a 12-h incubation by liquid-chromatography-coupled mass spectrometry (LC–MS); settings: 2 µM
[10] = The drug is tested on Bifidobacterium breve strain: DSM20213 for biotransformation. The drug concentrations were measured before and after a 12-h incubation by liquid-chromatography-coupled mass spectrometry (LC–MS); settings: 2 µM
[11] = akkermansia muciniphila, 12 h, 2 µM
Description: The drug is tested on Akkermansia muciniphila strain: ATCC BAA-835 for biotransformation. The drug concentrations were measured before and after a 12-h incubation by liquid-chromatography-coupled mass spectrometry (LC–MS)

[12] = segatella copri, 12 h, 2 µM
Description: The drug is tested on Prevotella copri strain: DSM18205 for biotransformation. The drug concentrations were measured before and after a 12-h incubation by liquid-chromatography-coupled mass spectrometry (LC–MS)

[13] = The drug is tested on Odoribacter splanchnicus strain: fecal isolate for biotransformation. The drug concentrations were measured before and after a 12-h incubation by liquid-chromatography-coupled mass spectrometry (LC–MS); settings: 2 µM
[14] = bifidobacterium adolescentis, 12 h, 2 µM
Description: The drug is tested on Bifidobacterium adolescentis strain: ATCC 15703 for biotransformation. The drug concentrations were measured before and after a 12-h incubation by liquid-chromatography-coupled mass spectrometry (LC–MS)

[15] = The drug is tested on Eubacterium hallii strain: DSM3353 for biotransformation. The drug concentrations were measured before and after a 12-h incubation by liquid-chromatography-coupled mass spectrometry (LC–MS); settings: anaerobutyricum hallii, 2 µM
[16] = limosilactobacillus reuteri cf48-3a, 12 h, 2 µM
Description: The drug is tested on Lactobacillus reuteri CF48-3A strain: BEI HM-102 for biotransformation. The drug concentrations were measured before and after a 12-h incubation by liquid-chromatography-coupled mass spectrometry (LC–MS)

[17] = The drug is tested on Clostridium sp. strain: fecal isolate for biotransformation. The drug concentrations were measured before and after a 12-h incubation by liquid-chromatography-coupled mass spectrometry (LC–MS); settings: 2 µM
[18] = The drug is tested on Blautia hansenii strain: DSM20583 for biotransformation. The drug concentrations were measured before and after a 12-h incubation by liquid-chromatography-coupled mass spectrometry (LC–MS); settings: 2 µM
[19] = The drug is tested on Bacteroides fragilis strain: ATCC43859 for biotransformation. The drug concentrations were measured before and after a 12-h incubation by liquid-chromatography-coupled mass spectrometry (LC–MS); settings: 2 µM
[20] = The drug is tested on Bacteroides uniformis strain: ATCC8492 for biotransformation. The drug concentrations were measured before and after a 12-h incubation by liquid-chromatography-coupled mass spectrometry (LC–MS); settings: 2 µM

SMILES	Bacterial Biotransformation [1]	Bacterial Biotransformation [2]	Bacterial Biotransformation [3]	Bacterial Biotransformation [4]	Bacterial Biotransformation [5]	Bacterial Biotransformation [6]	Bacterial Biotransformation [7]	Bacterial Biotransformation [8]	Bacterial Biotransformation [9]	Bacterial Biotransformation [10]	Bacterial Biotransformation [11]	Bacterial Biotransformation [12]	Bacterial Biotransformation [13]	Bacterial Biotransformation [14]	Bacterial Biotransformation [15]	Bacterial Biotransformation [16]	Bacterial Biotransformation [17]	Bacterial Biotransformation [18]	Bacterial Biotransformation [19]	Bacterial Biotransformation [20]
CCN(CC)C(=O)C1(c2ccccc2)CC1CN (stereo not drawn)	Compound NOT metabolized	Compound NOT metabolized	Compound NOT metabolized	Compound NOT metabolized	Compound NOT metabolized	Compound NOT metabolized	Compound NOT metabolized	Compound NOT metabolized	Compound NOT metabolized	Compound NOT metabolized	Compound NOT metabolized	Compound NOT metabolized	Compound NOT metabolized	Compound NOT metabolized	Compound NOT metabolized	Compound NOT metabolized	Compound NOT metabolized	Compound NOT metabolized	Compound NOT metabolized	–
O=C1[C@H](CC[C@H](O)c2ccc(F)cc2)[C@@H](c2ccc(O)cc2)N1c1ccc(F)cc1 [EZETIMIBE]	Compound NOT metabolized	Compound NOT metabolized	Compound NOT metabolized	Compound NOT metabolized	Compound NOT metabolized	Compound metabolized	–	Compound NOT metabolized	Compound metabolized	Compound NOT metabolized	Compound NOT metabolized	Compound NOT metabolized	Compound NOT metabolized	–	Compound NOT metabolized	Compound NOT metabolized	Compound NOT metabolized	Compound NOT metabolized	Compound NOT metabolized	Compound metabolized
CC(=O)CCCCn1c(=O)c2c(ncn2C)n(C)c1=O [PENTOXIFYLLINE]	Compound NOT metabolized	Compound NOT metabolized	Compound NOT metabolized	Compound NOT metabolized	Compound NOT metabolized	Compound NOT metabolized	Compound NOT metabolized	Compound NOT metabolized	Compound NOT metabolized	Compound NOT metabolized	Compound NOT metabolized	Compound NOT metabolized	Compound NOT metabolized	Compound NOT metabolized	Compound NOT metabolized	–	Compound NOT metabolized	Compound NOT metabolized	Compound NOT metabolized	Compound NOT metabolized
CC1OC(OC2C(O)CC(OC3C(O)CC(OC4CCC5(C)C(CCC6C5CCC5(C)C(C7=CC(=O)OC7)CCC65O)C4)OC3C)OC2C)CC(O)C1O (stereo not drawn)	Compound metabolized	Compound NOT metabolized	Compound metabolized	Compound NOT metabolized	Compound NOT metabolized	Compound NOT metabolized	Compound metabolized	Compound NOT metabolized	Compound metabolized	Compound NOT metabolized	Compound NOT metabolized	Compound metabolized	Compound metabolized	Compound NOT metabolized	Compound NOT metabolized	–	Compound metabolized	Compound metabolized	Compound metabolized	Compound metabolized
N#Cc1ccc(C(c2ccc(C#N)cc2)n2cncn2)cc1 [LETROZOLE]	Compound NOT metabolized	Compound NOT metabolized	Compound NOT metabolized	Compound NOT metabolized	Compound NOT metabolized	Compound NOT metabolized	Compound NOT metabolized	Compound NOT metabolized	Compound NOT metabolized	Compound NOT metabolized	Compound NOT metabolized	–	Compound NOT metabolized	Compound NOT metabolized	Compound NOT metabolized	Compound NOT metabolized	Compound NOT metabolized	Compound NOT metabolized	Compound NOT metabolized	Compound NOT metabolized
Cc1ccc(S(=O)(=O)NC(=O)NN2CC3CCCC3C2)cc1 (stereo not drawn) [GLICLAZIDE]	Compound metabolized	Compound NOT metabolized	Compound NOT metabolized	Compound NOT metabolized	Compound NOT metabolized	Compound NOT metabolized	Compound NOT metabolized	Compound NOT metabolized	Compound NOT metabolized	Compound NOT metabolized	Compound NOT metabolized	Compound NOT metabolized	Compound NOT metabolized	Compound NOT metabolized	Compound NOT metabolized	Compound NOT metabolized	Compound NOT metabolized	Compound NOT metabolized	Compound metabolized	–
